From patent US20150044702A1, “MEANS AND METHODS FOR ASSESSING DISORDERS RELATED TO IMPAIRED IRON […] ENERGY METABOLISM” (BASF SE, priority 2012, published 2015)
Marks after values point to notes of the source that are not given here.

Key:
[1] = 28-day rat study, plasma metabolite profiling: markers for Energy metabolism decreased; type: in vivo; details: for 3-Hydroxybutyrate, treatment ratio versus control / Citrate, treatment ratio versus control / Pyruvate, treatment ratio versus control / Succinate, treatment ratio versus control: male rats, plasma; for capability of inducing impaired energy metabolism: statement in words
Description: Drinking water was also offered ad libitum.
The samples were centrifuged for generation of plasma.

[2] = 28-day rat study, plasma metabolite profiling: markers for Duodenum iron deficiency; details: for Cholic acid, treatment ratio versus control / Choline plasmalogen (C18,C20:4), treatment ratio versus control / Citrate, treatment ratio versus control / Creatinine, treatment ratio versus control / DAG (C18:1,C18:2), treatment ratio versus control / Hippuric acid, treatment ratio versus control / Indole-3-propionic acid, treatment ratio versus control / Methionine, treatment ratio versus control / Proline, treatment ratio versus control / Serine, treatment ratio versus control / TAG (C16:0,C18:1,C18:3), treatment ratio versus control / TAG (C18:1,C18:2), treatment ratio versus control / TAG (C18:2,C18:2), treatment ratio versus control / TAG (C18:2,C18:3), treatment ratio versus control / TAG (DAG-Fragment), treatment ratio versus control / TAG No 02, treatment ratio versus control / TAG No 07, treatment ratio versus control / Threonine, treatment ratio versus control / alpha-Tocopherol, treatment ratio versus control / Alanine, treatment ratio versus control / Campesterol, treatment ratio versus control / Glutamate, treatment ratio versus control / Glutamine, treatment ratio versus control / Lysophosphatidylcholine (C20:4), treatment ratio versus control / Malate, treatment ratio versus control / Ornithine, treatment ratio versus control / Phosphatidylcholine (C18:0, C22:6), treatment ratio versus control / Threonic acid, treatment ratio versus control: plasma;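 note: rats given the compounds once a day across 28 days, plasma from fasted animals profiled by GC-MS and LC-MS, separate control groups of five rats per sex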
Description: A group of each 5 male and female rats was dosed once daily with the indicated compounds (see Table 4, below for compounds, applied doses and administration details) over 28 days.
Each dose group in the studies consisted of five rats per sex. Additional groups of each 5 male and female animals served as controls. Before starting the treatment period, animals, which were 62-64 days old when supplied, were acclimatized to the housing and environmental conditions for 7 days. All animals of the animal population were kept under the same constant temperature (20-24±3° C.) and the same constant humidity (30-70%). The animals of the animal population were fed ad libitum. The food to be used was essentially free of chemical or microbial contaminants. Drinking water was also offered ad libitum. Accordingly, the water was free of chemical and microbial contaminants as laid down in the European Drinking Water Directive 98/83/EG. The illumination period was 12 hours light followed by 12 hours darkness (12 hours light, from 6:00 to 18:00, and 12 hours darkness, from 18:00 to 6:00). The studies were performed in an AAALAC-approved laboratory in accordance with the German Animal Welfare Act and the European Council Directive 86/609/EE. The test system was arranged according to the OECD 407 guideline for the testing of chemicals for repeated dose 28-day oral toxicity study in rodents.
In the morning of day 7, 14, and 28, blood was taken from the retroorbital venous plexus from fasted anaesthetized animals. From each animal, 1 ml of blood was collected with EDTA as anticoagulant. The samples were centrifuged for generation of plasma. All plasma samples were covered with a N2 atmosphere and then stored at −80° C. until analysis.
For mass spectrometry-based metabolite profiling analyses plasma samples were extracted and a polar and a non-polar (lipid) fraction was obtained. For GC-MS analysis, the non-polar fraction was treated with methanol under acidic conditions to yield the fatty acid methyl esters. Both fractions were further derivatised with O-methyl-hydroxyamine hydrochloride and pyridine to convert Oxo-groups to O-methyloximes and subsequently with a silylating agent before analysis. In LC-MS analysis, both fractions were reconstituted in appropriate solvent mixtures. HPLC was performed by gradient elution on reversed phase separation columns.
Steroids and their metabolites were measured by online SPE-LC-MS (Solid phase extraction-LC-MS).
Following comprehensive analytical validation steps, the data for each analyte were normalized against data from pool samples. These samples were run in parallel through the whole process to account for process variability. The significance of treatment group values specific for sex, treatment duration and metabolite was determined by comparing means of the treated groups to the means of the respective untreated control groups using WELCH-test and quantified with treatment ratios versus control and p-values.

For NC(=O)c1ccc(N)nc1 [6-Aminonicotinamide i.p., 6-Aminopyridine-3-carboxamide], the “3-Hydroxybutyrate, treatment ratio versus control” value ([1]; day 7) was 0.31*, the “Citrate, treatment ratio versus control” value ([1]; day 7) was 0.62* and the “Pyruvate, treatment ratio versus control” value ([1]; day 7) was 0.31*. For the same molecule, the “Succinate, treatment ratio versus control” value ([1]; day 7) was 0.92* and the “capability of inducing impaired energy metabolism” value [1] was “capable of inducing impaired energy metabolism”.
With CNC(=O)/C(=N/OC)c1ccccc1COc1cc(C)ccc1C [Dimoxystrobin, (E)-2-(methoxyimino)-N-methyl-2-[alpha-(2,5-xylyloxy)-o-tolyl]acetamide] the “Cholic acid, treatment ratio versus control” value ([2]; female rats, day 7) was 70.58*, the “Choline plasmalogen (C18,C20:4), treatment ratio versus control” value ([2]; female rats, day 7) was 1.11 and the “Citrate, treatment ratio versus control” value ([2]; female rats, day 7) was 1.22*. For the same molecule, the “Creatinine, treatment ratio versus control” value ([2]; female rats, day 7) was 0.71, the “DAG (C18:1,C18:2), treatment ratio versus control” value ([2]; female rats, day 7) was 1.9* and the “Hippuric acid, treatment ratio versus control” value ([2]; female rats, day 7) was 0.85. For the same molecule, the “Indole-3-propionic acid, treatment ratio versus control” value ([2]; female rats, day 7) was 1.53, the “Methionine, treatment ratio versus control” value ([2]; female rats, day 7) was 1.05 and the “Proline, treatment ratio versus control” value ([2]; female rats, day 7) was 1.28*. For the same molecule, the “Serine, treatment ratio versus control” value ([2]; female rats, day 7) was 1.5*, the “TAG (C16:0,C18:1,C18:3), treatment ratio versus control” value ([2]; female rats, day 7) was 4.14* and the “TAG (C18:1,C18:2), treatment ratio versus control” value ([2]; female rats, day 7) was 4.42*. The “TAG (C18:2,C18:2), treatment ratio versus control” value ([2]; female rats, day 7) was 5.1*, the “TAG (C18:2,C18:3), treatment ratio versus control” value ([2]; female rats, day 7) was 4.2* and the “TAG (DAG-Fragment), treatment ratio versus control” value ([2]; female rats, day 7) was 4.39*. For the same molecule, the “TAG No 02, treatment ratio versus control” value ([2]; female rats, day 7) was 0.75*, the “TAG No 07, treatment ratio versus control” value ([2]; female rats, day 7) was 2.96* and the “Threonine, treatment ratio versus control” value ([2]; female rats, day 7) was 1.62*. For the same molecule, the “alpha-Tocopherol, treatment ratio versus control” value ([2]; female rats, day 7) was 1.74*, the “Cholic acid, treatment ratio versus control” value ([2]; female rats, day 14) was 39.73* and the “Choline plasmalogen (C18,C20:4), treatment ratio versus control” value ([2]; female rats, day 14) was 1.13*. For the same molecule, the “Citrate, treatment ratio versus control” value ([2]; female rats, day 14) was 1.17*, the “Creatinine, treatment ratio versus control” value ([2]; female rats, day 14) was 1.07 and the “DAG (C18:1,C18:2), treatment ratio versus control” value ([2]; female rats, day 14) was 1.96*. For the same molecule, the “Hippuric acid, treatment ratio versus control” value ([2]; female rats, day 14) was 0.51*, the “Indole-3-propionic acid, treatment ratio versus control” value ([2]; female rats, day 14) was 0.87 and the “Methionine, treatment ratio versus control” value ([2]; female rats, day 14) was 1.18*. The “Proline, treatment ratio versus control” value ([2]; female rats, day 14) was 1.35*, the “Serine, treatment ratio versus control” value ([2]; female rats, day 14) was 1.66* and the “TAG (C16:0,C18:1,C18:3), treatment ratio versus control” value ([2]; female rats, day 14) was 3.15. For the same molecule, the “TAG (C18:1,C18:2), treatment ratio versus control” value ([2]; female rats, day 14) was 3.71*, the “TAG (C18:2,C18:2), treatment ratio versus control” value ([2]; female rats, day 14) was 3.83* and the “TAG (C18:2,C18:3), treatment ratio versus control” value ([2]; female rats, day 14) was 2.76*. For the same molecule, the “TAG (DAG-Fragment), treatment ratio versus control” value ([2]; female rats, day 14) was 4.43*, the “TAG No 02, treatment ratio versus control” value ([2]; female rats, day 14) was 0.73* and the “TAG No 07, treatment ratio versus control” value ([2]; female rats, day 14) was 1.7. The “Threonine, treatment ratio versus control” value ([2]; female rats, day 14) was 1.34*, the “alpha-Tocopherol, treatment ratio versus control” value ([2]; female rats, day 14) was 1.43* and the “Cholic acid, treatment ratio versus control” value ([2]; female rats, day 28) was 6.46*. For the same molecule, the “Choline plasmalogen (C18,C20:4), treatment ratio versus control” value ([2]; female rats, day 28) was 1.11*, the “Citrate, treatment ratio versus control” value ([2]; female rats, day 28) was 1.21* and the “Creatinine, treatment ratio versus control” value ([2]; female rats, day 28) was 0.74. The “DAG (C18:1,C18:2), treatment ratio versus control” value ([2]; female rats, day 28) was 1.58*, the “Hippuric acid, treatment ratio versus control” value ([2]; female rats, day 28) was 0.29* and the “Indole-3-propionic acid, treatment ratio versus control” value ([2]; female rats, day 28) was 0.58*. For the same molecule, the “Methionine, treatment ratio versus control” value ([2]; female rats, day 28) was 1.15*, the “Proline, treatment ratio versus control” value ([2]; female rats, day 28) was 1.25* and the “Serine, treatment ratio versus control” value ([2]; female rats, day 28) was 1.41*. The “TAG (C16:0,C18:1,C18:3), treatment ratio versus control” value ([2]; female rats, day 28) was 2, the “TAG (C18:1,C18:2), treatment ratio versus control” value ([2]; female rats, day 28) was 1.95 and the “TAG (C18:2,C18:2), treatment ratio versus control” value ([2]; female rats, day 28) was 2.48*. The “TAG (C18:2,C18:3), treatment ratio versus control” value ([2]; female rats, day 28) was 2.26, the “TAG (DAG-Fragment), treatment ratio versus control” value ([2]; female rats, day 28) was 2.23* and the “TAG No 02, treatment ratio versus control” value ([2]; female rats, day 28) was 0.77*. The “TAG No 07, treatment ratio versus control” value ([2]; female rats, day 28) was 1.45, the “Threonine, treatment ratio versus control” value ([2]; female rats, day 28) was 1.23* and the “alpha-Tocopherol, treatment ratio versus control” value ([2]; female rats, day 28) was 1.32. For the same molecule, the “Alanine, treatment ratio versus control” value ([2]; male rats, day 7) was 1.41*, the “Campesterol, treatment ratio versus control” value ([2]; male rats, day 7) was 1.13 and the “Citrate, treatment ratio versus control” value ([2]; male rats, day 7) was 1.19*. For the same molecule, the “Creatinine, treatment ratio versus control” value ([2]; male rats, day 7) was 0.95, the “Glutamate, treatment ratio versus control” value ([2]; male rats, day 7) was 0.93 and the “Glutamine, treatment ratio versus control” value ([2]; male rats, day 7) was 0.79*. The “Hippuric acid, treatment ratio versus control” value ([2]; male rats, day 7) was 0.91, the “Lysophosphatidylcholine (C20:4), treatment ratio versus control” value ([2]; male rats, day 7) was 0.96 and the “Malate, treatment ratio versus control” value ([2]; male rats, day 7) was 1.25*. The “Methionine, treatment ratio versus control” value ([2]; male rats, day 7) was 1.08*, the “Ornithine, treatment ratio versus control” value ([2]; male rats, day 7) was 1.19* and the “Phosphatidylcholine (C18:0, C22:6), treatment ratio versus control” value ([2]; male rats, day 7) was 1.12*. The “Serine, treatment ratio versus control” value ([2]; male rats, day 7) was 1.28*, the “Threonic acid, treatment ratio versus control” value ([2]; male rats, day 7) was 1.33* and the “Threonine, treatment ratio versus control” value ([2]; male rats, day 7) was 1.14. For the same molecule, the “Alanine, treatment ratio versus control” value ([2]; male rats, day 14) was 1.59*, the “Campesterol, treatment ratio versus control” value ([2]; male rats, day 14) was 1.16 and the “Citrate, treatment ratio versus control” value ([2]; male rats, day 14) was 1.32*. For the same molecule, the “Creatinine, treatment ratio versus control” value ([2]; male rats, day 14) was 0.63*, the “Glutamate, treatment ratio versus control” value ([2]; male rats, day 14) was 0.74* and the “Glutamine, treatment ratio versus control” value ([2]; male rats, day 14) was 0.77*. The “Hippuric acid, treatment ratio versus control” value ([2]; male rats, day 14) was 0.48*, the “Lysophosphatidylcholine (C20:4), treatment ratio versus control” value ([2]; male rats, day 14) was 0.93* and the “Malate, treatment ratio versus control” value ([2]; male rats, day 14) was 1.16. The “Methionine, treatment ratio versus control” value ([2]; male rats, day 14) was 1.16*, the “Ornithine, treatment ratio versus control” value ([2]; male rats, day 14) was 1.52* and the “Phosphatidylcholine (C18:0, C22:6), treatment ratio versus control” value ([2]; male rats, day 14) was 1.47*. For the same molecule, the “Serine, treatment ratio versus control” value ([2]; male rats, day 14) was 1.32*, the “Threonic acid, treatment ratio versus control” value ([2]; male rats, day 14) was 1.29* and the “Threonine, treatment ratio versus control” value ([2]; male rats, day 14) was 1.29*. For the same molecule, the “Alanine, treatment ratio versus control” value ([2]; male rats, day 28) was 1.28*, the “Campesterol, treatment ratio versus control” value ([2]; male rats, day 28) was 0.59* and the “Citrate, treatment ratio versus control” value ([2]; male rats, day 28) was 1.57*. The “Creatinine, treatment ratio versus control” value ([2]; male rats, day 28) was 0.26*, the “Glutamate, treatment ratio versus control” value ([2]; male rats, day 28) was 0.78* and the “Glutamine, treatment ratio versus control” value ([2]; male rats, day 28) was 0.83*. The “Hippuric acid, treatment ratio versus control” value ([2]; male rats, day 28) was 1.43, the “Lysophosphatidylcholine (C20:4), treatment ratio versus control” value ([2]; male rats, day 28) was 1.03 and the “Malate, treatment ratio versus control” value ([2]; male rats, day 28) was 0.86. The “Methionine, treatment ratio versus control” value ([2]; male rats, day 28) was 1.01, the “Ornithine, treatment ratio versus control” value ([2]; male rats, day 28) was 1.47* and the “Phosphatidylcholine (C18:0, C22:6), treatment ratio versus control” value ([2]; male rats, day 28) was 1.35*. The “Serine, treatment ratio versus control” value ([2]; male rats, day 28) was 1.29*, the “Threonic acid, treatment ratio versus control” value ([2]; male rats, day 28) was 1.46* and the “Threonine, treatment ratio versus control” value ([2]; male rats, day 28) was 1.21*. The “capability of inducing an iron adsorption disorder” value ([2]; statement in words) was “capable of inducing an iron adsorption disorder”.
In the case of COCCO [2-Methoxyethanol], the “3-Hydroxybutyrate, treatment ratio versus control” value ([1]; day 7) is reported as 0.45*, the “Citrate, treatment ratio versus control” value ([1]; day 7) is reported as 0.7* and the “Pyruvate, treatment ratio versus control” value ([1]; day 7) is reported as 0.63*. For the same molecule, the “Succinate, treatment ratio versus control” value ([1]; day 7) was 0.91, the “3-Hydroxybutyrate, treatment ratio versus control” value ([1]; day 14) was 0.24* and the “Citrate, treatment ratio versus control” value ([1]; day 14) was 0.39*. The “Pyruvate, treatment ratio versus control” value ([1]; day 14) was 0.66*, the “Succinate, treatment ratio versus control” value ([1]; day 14) was 0.99 and the “capability of inducing impaired energy metabolism” value [1] was “capable of inducing impaired energy metabolism”.
